pIC50: −log10 of the molar value. Where “and” joins values, the source holds several entries; their conditions need not be identical. Identical values can stand only once.
Experiments:
[1] = test system: Colo375FG metastatic pancreatic adenocarcinoma cells; experiment: TUNEL apoptosis assay (flow cytometry); type: cell-based, human; settings: for Dead cells TUNEL (%): Compound IIIc 0 mM
Experimental: Cells are labeled for apoptosis with the “In Situ Cell Death Detection Kit, Fluorescein” (Roche Diagnostics Corporation, Roche Applied Science, Indianapolis, Ind.). Briefly, fixed cells are centrifuged and washed once in phosphate-buffered saline (PBS) containing 1% bovine serum albumin (BSA), then resuspended in 2 ml permeabilization buffer (0.1% Triton X-100 and 0.1% sodium citrate in PBS) for 25 min at room temperature and washed twice in 0.2 ml PBS/1% BSA. The cells are resuspended in 50 μl TUNEL reaction mixture (TdT enzyme and labeling solution) and incubated for 60 min at 37° C. in a humidified dark atmosphere in an incubator. The labeled cells are washed once in PBS/1% BSA, then resuspended in 0.5 ml ice-cold PBS containing 1 μg/ml 4′,6-diamidino-2-phenylindole (DAPI) for at least 30 min. All cell samples are analyzed with a BD LSR II (BD Biosciences, San Jose, Calif.).
The cells are labeled for apoptosis with the “In Situ Cell Death Detection Kit, Fluorescein” (Roche Diagnostics Corporation, Roche Applied Science, Indianapolis, Ind.). Briefly, fixed cells are centrifuged and washed once in phosphate-buffered saline (PBS) containing 1% bovine serum albumin (BSA), then resuspended in 2 ml permeabilization buffer (0.1% Triton X-100 and 0.1% sodium citrate in PBS) for 25 minutes at room temperature and washed twice in 0.2 ml PBS/1% BSA. The cells are resuspended in 50 μl TUNEL reaction mixture (TdT enzyme and labeling solution) and incubated for 60 min at 37° C. in a humidified dark atmosphere in an incubator. The labeled cells are washed once in PBS/1% BSA, then resuspended in 0.5 ml ice-cold PBS containing 1 μg/ml 4,6-diamidino-2-phenylindole (DAPI) for at least 30 min. All cell samples are analyzed with a BD LSR II (BD Biosciences, San Jose, Calif.).

PARP1+/+A16 fibroblasts = experiment: Proliferation by BrdU incorporation; type: cell-based; settings: wildtype fibroblasts; single agent
Experimental: (§1) Proliferation of various tumor cell lines including uterine cancer Hela cells, lung carcinoma A549 cells, PARP1+/+A16 and PARP1−/− A12 fibroblasts, and several human pancreatic tumor cell lines, COLO357FG, MiaPaCa-2, AsPC-1, L3.6pl, and Panc28, is measured by BrdU incorporation. In some experiments, tumor cell proliferation is measured after 96 hours. The concentration of IIIg is titrated to show the effect of IIIg on tumor cell growth in vitro.
(§2) BrdU assay is well known in the art. Briefly, cells are cultured in the presence of the respective test substances in an appropriate 96-well MP at 37° C. for a certain period of time (1 to 5 days, depending on the individual assay system). Subsequently, BrdU is added to the cells and the cells are reincubated (usually 2-24 h). During this labeling period, the pyrimidine analogue BrdU is incorporated in place of thymidine into the DNA of proliferating cells. After removing the culture medium the cells are fixed and the DNA is denatured in one step by adding FixDenat (the denaturation of the DNA is necessary to improve the accessibility of the incorporated BrdU for detection by the antibody). The anti-BrdU-POD antibody is added and the antibody binds to the BrdU incorporated in newly synthesized, cellular DNA. The immune complexes are detected by the subsequent substrate reaction via chemiluminescent detection (based on Cell Proliferation ELISA, BrdU Chemiluminescence Protocol from Roche).
(§3) Experiments and analyses are performed according to Shaw G and Prowse DM, “Inhibition of androgen-independent prostate cancer cell growth is enhanced by combination therapy targeting Hedgehog and ErbB signaling” Cancer Cell Int. 2008 Mar. 18; 8:3.

PARP1−/− A12 fibroblasts = experiment: Proliferation by BrdU incorporation; type: cell-based; settings: PARP-1−/− fibroblasts; single agent
Experimental: as §1, §2, §3

[2] = test system: human pancreatic tumor cell lines, COLO357FG, MiaPaCa-2, AsPC-1, L3.6pl, and Panc28; experiment: Proliferation by BrdU incorporation; type: cell-based; settings: single agent
Experimental: as §1, §2, §3

COLO357FG and MiaPaCa-2 = experiment: Combination with oxaliplatin, BrdU proliferation, Chou and Talalay's method; type: cell-based, human; settings: combination of IIIg with oxaliplatin
Experimental: This example provides the assessment of IIIg in combination with an anti-tumor agent, oxaliplatin, on the proliferation of two human pancreatic tumor cell lines, COLO357FG and MiaPaCa-2, in vitro. Cell proliferation is measured by BrdU incorporation as described in detail hereinabove. The experiments are performed according to Chou and Talalay's method (Chou T C, Talalay P. Quantitative analysis of dose-effect relationships: the combined effects of multiple drugs or enzyme inhibitors. Adv Enzyme Regul 1984, 22: 27-55).

[3] = test system: human tumor cells including pancreatic, breast, uterine, lung, prostate, and ovarian cancer cells; experiment: Proliferation of human tumor cells in vitro (summary); type: cell-based
[4] = test system: eight pancreatic cancer cells; experiment: BrdU-ELISA proliferation assay, IIIg alone and with oxaliplatin; type: cell-based, human
Experimental: The effect of IIIg alone and in combination with oxaliplatin on the proliferation of eight pancreatic cancer cells is determined using a BrdU-ELISA assay.
Assessment of synergy is performed according to the method described by Chou and Talalay.

L3.6 μl PC cells = experiment: Luciferase-expressing pancreatic cancer orthotopic nude mouse model; type: in vivo; settings: 100 mg/kg/day 2/week×4 weeks
Experimental: The therapeutic efficacy of IIIg on tumor growth and survival is evaluated in different luciferase-expressing pancreatic cancer orthotopic nude mouse models using an IVIS100 Imaging System, allowing a quantitative real time monitoring of tumor growth.
Mice are monitored daily for signs of toxicity including weight loss, diarrhea, inactivity, and general appearance.

For `O=C1[O][Pt]2([NH][C@@H]3CCCC[C@H]3[NH]2)[O]C1=O` [OxaliPt, oxaliplatin, reference compound], the “Dead cells TUNEL (%)” value ([1]; OxaliPt 10 mM) was 21.0%, the “Dead cells TUNEL (%)” value ([1]; OxaliPt 20 mM) was 48.3% and the “TUNEL (%)” value ([1]; IIIg 0 μM, OxaliPt 10 μM) was 21%. For the same molecule, the “TUNEL (%)” value ([1]; IIIg 0 μM, OxaliPt 20 μM) was 48.3%.
`O=c1ccc2c(I)c([N+](=O)[O-])ccc2o1` [IIIg, 5-iodo-6-nitro-benzopyrone] was tested, and the “TUNEL (%)” value ([1]; IIIg 2.5 μM, OxaliPt 0 μM) was 3.3% and 2.5%, the “TUNEL (%)” value ([1]; combination: IIIg 2.5 μM + OxaliPt 10 μM) was 19% and the “TUNEL (%)” value ([1]; combination: IIIg 2.5 μM + OxaliPt 20 μM) was 42%. The “TUNEL (%)” value ([1]; combination: IIIg 12.5 μM + OxaliPt 10 μM) was 57.3%, the “TUNEL (%)” value ([1]; combination: IIIg 12.5 μM + OxaliPt 20 μM) was 85.7% and the “TUNEL (%)” value ([1]; combination: IIIg 25 μM + OxaliPt 10 μM) was 89.5%. The “TUNEL (%)” value ([1]; combination: IIIg 25 μM + OxaliPt 20 μM) was 94.2%, the Cell growth (PARP1+/+A16 fibroblasts) was “selectively inhibits the growth of wildtype” and the Cell growth (PARP1−/− A12 fibroblasts) was “not PARP-1−/− fibroblasts”. The Cell growth [2] was “significantly inhibits cell growth”, the “Synergy with oxaliplatin on proliferation” value (COLO357FG and MiaPaCa-2) was “synergizes with oxaliplatin” and the “Proliferation of human tumor cells” value [3] was “inhibits the proliferation”. For the same molecule, the pIC50 ([4]; Homo sapiens, Pancreatic cancer cell, IIIg alone, range over eight PC cell lines, read-out: IC50 (growth of eight PC cell lines)) was 5.00 to 5.30, the “Potentiation of oxaliplatin cytotoxicity” value ([4]; different pancreatic cancer cell models) was “potentiates oxaliplatin cytotoxicity” and the Signs of toxicity (L3.6 μl PC cells) was “without signs of toxicity”. For the same molecule, the Survival (L3.6 μl PC cells) was “prolongs survival” and the Tumor burden (L3.6 μl PC cells) was “significantly reduces the tumor burden”.

From US20090149417A1, “Methods and compositions for the treatment of cancer using benzopyrone-type PARP inhibitors” (priority 2007, published 2009)
